Experimental data as given in patent US8128802B2, “Analysis apparatus and analysis method for glycosylated hemoglobin” (OJI Paper Co., Ltd, priority 2005, dated 2012).

How the values were obtained:
Format in all cases: biochemical
[1] = tested on: fructosyl peptide oxidase; assay: Substrate specificity, pH profile and stability of fructosyl peptide oxidase-immobilized column (Example 1); details: for Relative activity (%) pH 6.0: buffer pH 6.0; for Relative activity (%) pH 6.0 / Relative activity (%) pH 7.0 / Relative activity (%) pH 8.0: normalized to 100 for the response to fructosyl valine at each pH, 30° C.; for Relative activity (%) pH 7.0: buffer pH 7.0; for Relative activity (%) pH 8.0: buffer pH 8.0
Procedure: Firebrick powder (150 mg, 30 to 60 meshes) was thoroughly dried, immersed in a 10% solution of γ-aminopropyltriethoxysilane in anhydrous toluene for one hour, then thoroughly washed with anhydrous toluene and dried. The aminosilane-modified support was immersed in a 5% aqueous glutaraldehyde solution for one hour, and then thoroughly washed with distilled water, followed by substitution with 100 mM sodium phosphate buffer (pH 7.0). The buffer was removed as far as possible. A solution ([…]) of fructosyl peptide oxidase (140 units/mL, from Kikkoman Co.) in 100 mM sodium phosphate buffer (pH 7.0) was contacted with the formylated firebrick powder, and then incubated at 0 to 4° C. for one day for the enzyme immobilization. The support immobilized enzyme was packed into a column (internal diameter: 3.5 mm, length: 30 mm) to give the fructosyl peptide oxidase-immobilized column.
The buffer was pumped out from a buffer tank (1) using a pump (2), and 5 μL of a sample was injected using a valve (4). A protease-immobilized column (14), a flow type calorimeter (16), a second immobilized enzyme column (19) and a second electrode for hydrogen peroxide (20) were not placed, and a fructosyl peptide oxidase-immobilized column was placed as a first immobilized enzyme column (17), followed by an electrode for hydrogen peroxide (18) downstream thereof. The injected sample transferred with the flowing buffer, passed through a mixing coil (15) inside an incubator (13), and thus the sample temperature was adjusted and the sample was mixed with the buffer. The sample passed through the fructosyl peptide oxidase-immobilized column (17) and the electrode for hydrogen peroxide (18) to produce hydrogen peroxide from fructosyl valylhistidine in the sample, and then the change of the current was detected.
A composition of the buffer used in this assay apparatus contained 100 mM phosphoric acid, 50 mM potassium chloride and 1 mM sodium azide, and its pH was 7.0.
(§1) The flow rate of the buffer was 1.0 mL/minute, and the temperature in the incubator was 30° C.
Using the assay apparatus described in (3), a 5 μL portion of fructosyl glycine, fructosyl valine or fructosyl valylhistidine was injected, and the characteristics of the fructosyl peptide oxidase-immobilized column was examined.
When pH of the buffer was 6.0, 7.0 or 8.0, the assay results of the activity for the oxidation of fructosyl glycine (FG), fructosyl valine (FV) or fructosyl valylhistidine (FVH) were shown in FIG. 3. For fructosyl glycine the activity was high at pH 8.0, but the activity at pH 6.0 was decreased to about 50% of that at pH 8.0. For fructosyl valine and fructosyl valylhistidine, the activity was high at pH 6.0 and 7.0.
Response values in Table 1 were normalized to 100 for the response to fructosyl valine at each pH.

[2] = tested on: fructosyl amino acid oxidase; assay: Substrate specificity of fructosyl amino acid oxidase-immobilized column (Example 3); details: buffers pH 8.0; normalized to 100 for the response to fructosyl glycine; 37° C.; dialysis module
Text: The buffer was removed as far as possible. […] The support immobilized enzyme was packed into the column (internal diameter: 3.5 mm, length: 30 mm) to give the fructosyl amino acid oxidase-immobilized column. In the assay apparatus shown in FIG. 2, the flow type calorimeter (16), the protease-immobilized column (14) and the first immobilized enzyme column (17) were not disposed, and the electrode for glucose was placed in the electrode for hydrogen peroxide (18), the fructosyl amino acid oxidase-immobilized column in the second immobilized enzyme column (19), and the electrode for hydrogen peroxide in the electrode for hydrogen peroxide (20). The buffer B was pumped out from the buffer tank (24) using the pump (25), and a 100 μL portion of the sample was injected using the valve (4). […] Since the buffer A was pumped out from the buffer tank (1) by the pump (2), the components with low molecular weight in the sample dialyzed in the dialysis module (27) passed through the electrode for glucose (18), the fructosyl amino acid oxidase-immobilized column (19) and the electrode for hydrogen peroxide (20), and hydrogen peroxide from glucose and fructosyl amino acid in the sample was detected. […] The temperature in the incubator was 37° C. The substrate specificity of fructosyl amino acid oxidase-immobilized column for various fructosyl amino acids, fructosyl peptides, amino acids and sugars was examined using the assay apparatus mentioned in (4) when pH of the buffers was 8.0.

[3] = tested on: fructosyl amino acid oxidase; assay: Characteristics of fructosyl amino acid oxidase-immobilized column (Example 5); details: buffer pH 8.0, 37° C.
Procedure: FIG. 1 was the flow type assay apparatus with one flow path. The buffer A was pumped out from the buffer tank (1) using the pump (2), and a 5 μL portion of the sample was injected using the valve (4). The fructosyl amino acid oxidase-immobilized column was placed in the first immobilized enzyme column (17) and the electrode for hydrogen peroxide was placed downstream. The second immobilized enzyme column (19), the second electrode for hydrogen peroxide (20), the protease-immobilized column (14) and the flow type calorimeter (16) were not disposed. The injected sample transferred with the flowing buffer, passed through the mixing coil (15) in the incubator (13), and thus the sample temperature was adjusted and the sample was mixed with the buffer. The sample passed through the fructosyl amino acid oxidase-immobilized column (17) and the electrode for hydrogen peroxide (18), hydrogen peroxide was produced from fructosyl valine in the sample, and the change of the current was detected.
The composition of the buffer for this assay apparatus contained 100 mM phosphoric acid, 50 mM potassium chloride and 1 mM sodium azide, and its pH was 8.0.
The flow rate of the buffer was 1.0 mL/minute, and the temperature in the incubator was 37° C.
Using the assay apparatus 1 mentioned in (3), a 5 μL portion of fructosyl glycine was injected, and the characteristics of the fructosyl amino acid oxidase-immobilized column was examined.
When pH in the buffer was 7.0, 7.5, 8.0, 8.5 or 9.0, the activity in the oxidation of fructosyl glycine was measured.

[4] = tested on: fructosyl peptide oxidase; assay: Substrate specificity of fructosyl peptide oxidase-immobilized column (Example 4); details: buffer A pH 7.0; for Relative response value: normalized to 100 for the response to fructosyl valine, 30° C.
Procedure: In the same way as described in Example 1 (1), 150 mg of firebrick powder (30 to 60 meshes) was formylated. The solution (200 μL) of fructosyl peptide oxidase (140 units/mL, from Kikkoman Co.) in 100 mM sodium phosphate buffer (pH 7.0) was contacted with the formylated firebrick powder, and then incubated at 0 to 4° C. for one day for the enzyme immobilization.
In the assay apparatus shown in FIG. 1, the protease-immobilized column (14), the flow type calorimeter (16) and the first immobilized enzyme column (17) were not disposed, and the electrode for glucose was placed in the electrode for hydrogen peroxide (18), the fructosyl peptide oxidase-immobilized column in the second immobilized enzyme column (19), and the electrode for hydrogen peroxide in the electrode for hydrogen peroxide (20). The buffer A was pumped out from the buffer tank (1) by the pump (2), and a 5 μL portion of the sample was injected using the valve (4). The injected sample transferred with the flowing buffer A, passed through the mixing coil (15) in the incubator (13), and thus the sample temperature was adjusted and the sample was mixed with the buffer. And then the sample passed through the downstream electrode for glucose (18), fructosyl peptide oxidase-immobilized column (19) and an electrode for hydrogen peroxide (20), hydrogen peroxide was produced from fructosyl valylhistidine in the sample, and the change of the current was detected.
The composition of the buffer A for the assay apparatus contained 100 mM phosphoric acid, 50 mM potassium chloride and 1 mM sodium azide, and its pH was 7.0.
as §1
On fructosyl peptide oxidase-immobilized column, the substrate specificity for various fructosyl amino acids, fructosyl peptides, amino acids and sugars was examined using the assay apparatus mentioned in (4) when pH of the buffer A was 7.0. In the Table 4, the relative values were normalized to 100 for the response to fructosyl valine.

Compound | Relative activity (%) pH 6.0 [1] [%] | Relative activity (%) pH 7.0 [1] [%] | Relative activity (%) pH 8.0 [1] [%] | Relative response value [2] | Relative activity (%) ([3]; sample concentration 10 mM) | Relative response value [4] | response of fructosyl peptide oxidase-immobilized column (in words) ([1]; at any pH (6.0, 7.0, 8.0)) | Relative activity (%) ([3]; sample concentration 0.1 mM) | response of fructosyl peptide oxidase-immobilized column (in words) [4]
C[C@@H](O)[C@H](N)C(=O)O [Thr] | 0 | 0 | 0 | 0.0 | 2.0 | 0.0 | – | – | –
N[C@@H](Cc1c[nH]c2ccccc12)C(=O)O [Trp] | 0 | 0 | 0 | 0.0 | 13.0 | 0.0 | – | – | –
CC(C)[C@H](N)C(=O)O [Val] | 0 | 0 | 0 | 0.0 | 0.0 | 0.0 | – | – | –
O=C[C@H](O)[C@@H](O)[C@H](O)CO [Xylose] | 0 | 0 | 0 | 0.0 | 0.0 | 0.0 | – | – | –
O=C(O)[C@H](CCCCNCC(=O)[C@@H](O)[C@H](O)[C@H](O)CO)NCC(=O)[C@@H](O)[C@H](O)[C@H](O)CO [α, ε-Fructosyl lysine] | 9 | 10 | 11 | 1.1 | – | 9.9 | scarcely responded | 5.0 | scarcely responded
